According to US6846933B1, “Antimycobacterial compounds and method for making the same” (priority 2000, dated 2005):
In brackets after ≈: the same amount, converted by molar mass. Read-outs that look alike come from different tables or passages of the source.

Columns and labels:
[1] = system: Mycobacterium tuberculosis H37Rv (ATCC 27294); test: TAACF MIC / primary screen vs M. tuberculosis H37Rv (MABA or BACTEC 460); assay type: cell-based; conditions: for MIC: Mycobacterium tuberculosis
VERO cells = test: Cytotoxicity in VERO cells (MTT, 72 hours); assay type: cell-based; conditions: Chlorocebus sabaeus
M. avium (ATCC 25291) = test: TAACF M. avium assay; assay type: cell-based, Mycobacterium avium; parameters: % Inhibition: concentration or dose not given beside the values; conditions: for % Inhibition: M. avium assay; for MIC: Mycobacterium avium, ATCC25291, M. avium assay, read-out: MIC
[2] = system: M. tuberculosis Erdman (ATCC 35801) in monolayers of mouse bone marrow macrophages; test: Killing of M. tuberculosis Erdman in mouse bone marrow macrophages; assay type: cell-based; conditions: Mycobacterium tuberculosis, Bone marrow macrophage, 168 h
M. tuberculosis Erdman = test: MIC vs M. tuberculosis Erdman; assay type: cell-based; conditions: Mycobacterium tuberculosis
M. tuberculosis EMB-R = test: microbe, parasite or virus in culture; assay type: cell-based; conditions: Mycobacterium tuberculosis, read-out: MIC EMB-R (ug/ml)
M. tuberculosis ETA-R = test: MIC vs ETA-R M. tuberculosis; assay type: cell-based; conditions: Mycobacterium tuberculosis, read-out: MIC ETA-R (ug/ml)
M. tuberculosis TAC-R = test: microbe, parasite or virus in culture; assay type: cell-based; conditions: Mycobacterium tuberculosis, Bactec, strain panel
[3] = Quantitative estimate of relative lipophilicity (chloroform/water partitioning vs isoniazid); conditions: ratio chloroform:water compared to same ratio for isoniazid as standard (INH = unity)
[4] = M. tuberculosis assay, Tables 4 and 5, read-out: MIC
[5] = Bactec, strain panel, read-out: MIC H37Rv
[6] = Bactec, strain panel, read-out: MIC Erdman
[7] = M. tuberculosis assay, Bactec, Tables 6, 7, 8
[8] = M. tuberculosis assay, Bactec, Tables 6, 7, 8, read-out: MIC
[9] = M. tuberculosis assay, Table 13, primary screen
[10] = M. tuberculosis assay, Table 13, primary screen, read-out: MIC

With `O=C(N/N=C/c1c(F)cccc1F)c1ccncc1` [Sample ID 122489] as the compound, how does the “% Inhibition” value ([1]; M. tuberculosis assay, Alamar, Table 7) read?
Its value is 99%.

What about the MIC ([1]; M. tuberculosis assay, Alamar, Tables 7 and 9) of the same compound?
The MIC was < 0.2 µg/mL.

And the IC50 (VERO cells)?
Its IC50 is > 125 µg/mL.

And the “% Inhibition” value (M. avium (ATCC 25291); Bactec, Tables 10-12)?
Its value is 45%.

And the MIC (M. avium (ATCC 25291); Bactec, Tables 10-12)?
Its MIC is > 12.5 µg/mL.

Which results are given for `CCCCOc1ccc(/C=N/NC(=O)c2ccncc2)cc1` [Sample ID 102090]?
MIC [1, 4]: 0.1 µg/mL (≈ 0.336 µM); EC90 [2]: 0.18 µg/mL (≈ 0.605 µM); EC99 [2]: > 1.6 µg/mL

For `O=C(N/N=C/C=C(c1ccccc1)c1ccccc1)c1ccncc1` [Sample ID 132532], which MIC [1, 5] is on record?
Its MIC is 0.1 µg/mL (≈ 0.305 µM).

What about the “MIC (ug/mg)” value ([1]; Table 1, M. tuberculosis assay, Bactec) of the same compound?
The value was 0.1 µg/mL (≈ 0.305 µM).

And the MIC (M. tuberculosis Erdman; [6])?
Its MIC is 0.1 µg/mL (≈ 0.305 µM).

And the MIC (M. tuberculosis EMB-R)?
Its MIC is > 3.2 µg/mL.

And the MIC (M. tuberculosis ETA-R)?
Its MIC is 1.6 µg/mL (≈ 4.89 µM).

And the MIC (M. avium (ATCC 25291); BACTEC, Tables 2 and 3)?
Its MIC is > 3.2 µg/mL.

For `O=C(N/N=C/c1ccccc1)c1ccncc1` [Sample ID 102787], which MIC [1, 4] is on record?
Its MIC is 0.1 µg/mL (≈ 0.444 µM).

And the EC90 [2]?
The EC90 was 0.04 µg/mL (≈ 0.178 µM).

And the EC99 [2]?
The EC99 was 0.12 µg/mL.

With `CCCCCCCCCCCC/C=N/NC(=O)c1ccncc1` [Sample ID 102094] as the compound, how does the MIC [1, 4] read?
Its MIC is 0.2 µg/mL (≈ 0.63 µM).

And the EC90 [2]?
The EC90 was 0.08 µg/mL (≈ 0.252 µM).

And the EC99 [2]?
Its EC99 is > 3.2 µg/mL.

With `CC(=O)N1N=C(c2ccncc2)OC1c1c(Cl)cccc1Cl` (stereo not shown) [Sample ID 117899] as the compound, how does the “% Inhibition” value (M. avium (ATCC 25291); Alamar, Table 11) read?
Its value is 12%.

What about the MIC (M. avium (ATCC 25291); Alamar, Table 11) of the same compound?
Its MIC is > 12.5 µg/mL.

What does the source list for `O=C(NN=C1CCCC1)c1ccncc1` [Sample ID 111298]?
MIC [1, 7]: 0.02 µg/mL (≈ 0.0984 µM); MIC [1, 4]: 0.025 µg/mL (≈ 0.123 µM); MIC ([1]; read-out: MIC H37Rv (ug/ml), Bactec, strain panel): 0.05 µg/mL (≈ 0.246 µM); EC90 [2]: 0.03 µg/mL (≈ 0.148 µM); EC99 [2]: 0.16 µg/mL; MIC (M. tuberculosis Erdman; read-out: MIC Erdman (ug/ml)): 0.05 µg/mL (≈ 0.246 µM); MIC (M. tuberculosis EMB-R): 0.05 µg/mL (≈ 0.246 µM)

With `COc1ccc(/C=N/NC(=O)c2ccncc2)cc1` [Sample ID 102866] as the compound, how does the MIC [1, 5] read?
Its MIC is < 0.05 µg/mL.

And the MIC [1, 8]?
The MIC was 0.1 µg/mL (≈ 0.392 µM).

And the MIC [1, 4]?
The MIC was 0.1 µg/mL (≈ 0.392 µM).

What about the EC90 [2] of the same compound?
The EC90 was 0.04 µg/mL (≈ 0.157 µM).

And the EC99 [2]?
Its EC99 is 0.15 µg/mL.

And the MIC (M. tuberculosis Erdman; read-out: MIC Erdman (ug/ml))?
Its MIC is < 0.05 µg/mL.

What about the MIC (M. tuberculosis TAC-R) of the same compound?
The MIC was < 3.25 µg/mL.

And the MIC (M. avium (ATCC 25291); BACTEC, Tables 2 and 3)?
Its MIC is 3.25 µg/mL (≈ 12.7 µM).

What does the source list for `CC(=O)N1N=C(c2ccncc2)OC1c1ccc(Cl)c([N+](=O)[O-])c1` (stereo not shown) [Sample ID 122491]?
% Inhibition [1, 9]: 98%; MIC [1, 10]: < 12.5 µg/mL

For `O=C(N/N=C/c1cc(Cl)ccc1Cl)c1ccncc1` [Sample ID 117150], which MIC [1, 5] is on record?
The MIC was < 0.05 µg/mL.

What about the MIC [1, 8] of the same compound?
The MIC was 0.1 µg/mL (≈ 0.34 µM).

And the MIC (M. tuberculosis Erdman; read-out: MIC Erdman (ug/ml))?
The MIC was < 0.05 µg/mL.

And the MIC (M. tuberculosis TAC-R)?
The MIC was > 3.25 µg/mL.

And the “% Inhibition” value (M. avium (ATCC 25291); Alamar, Table 11)?
The value was 0%.

What about the MIC (M. avium (ATCC 25291); Alamar, Table 11) of the same compound?
Its MIC is > 12.5 µg/mL.

And the MIC (M. avium (ATCC 25291); BACTEC, Tables 2 and 3)?
Its MIC is > 3.25 µg/mL.

For `CC(=O)N1N=C(c2ccncc2)OC1c1c(F)cccc1F` (stereo not shown) [Sample ID 122492], which “% Inhibition” value [1, 9] is on record?
The value was 99%.

And the MIC [1, 10]?
Its MIC is < 12.5 µg/mL.

With `CO[C@H]1/C=C/O[C@@]2(C)Oc3c(C)c(O)c4c(O)c(c(/C=N/N5CCN(C)CC5)c(O)c4c3C2=O)NC(=O)/C(C)=C\C=C\[C@H](C)[C@H](O)[C@@H](C)[C@@H](O)[C@@H](C)[C@H](OC(C)=O)[C@@H]1C` [RMP, rifampin, reference compound] as the compound, how does the MIC ([1]; read-out: MIC of RMP vs H37Rv (Comment, Table 9), control in MBC test) read?
The MIC was 0.5 µg/mL.

What about the “% inhibition vs. M. tuberculosis (RMP control, Comment)” value ([1]; RMP at its MIC 0.25 μg/ml) of the same compound?
Its value is 99%.

And the IC50 (VERO cells)?
Its IC50 is 68 µg/mL (≈ 82.6 µM).

For `CC1C/C(=N/NC(=O)c2ccncc2)CC(C)(C)C1` (stereo not shown) [Sample ID 114353], which MIC [1, 5] is on record?
The MIC was < 0.1 µg/mL.

And the MIC [1, 7]?
The MIC was > 6.25 µg/mL.

What about the MIC (M. tuberculosis Erdman; [6]) of the same compound?
The MIC was < 0.1 µg/mL.

What about the MIC (M. tuberculosis EMB-R) of the same compound?
Its MIC is < 0.1 µg/mL.

For `CCCCC(=O)NNC(=O)c1ccncc1`, which melting point is on record?
Its melting point is 162 °C.

With `O=C(NN=Cc1ccccc1[N+](=O)[O-])c1ccncc1` [Schiff Base Example 47, Isonicotinoylhydrazone of 2-Nitrobenzaldehyde] as the compound, how does the “Relative Lipophilicity” value [3] read?
Its value is 316.

With `O=C(N/N=C/c1ccc(F)cc1)c1ccncc1` [Sample ID 103167] as the compound, how does the MIC [1, 4] read?
Its MIC is 0.1 µg/mL (≈ 0.411 µM).

And the EC90 [2]?
Its EC90 is 0.02 µg/mL (≈ 0.0822 µM).

What about the EC99 [2] of the same compound?
The EC99 was 0.07 µg/mL.

With `CC(=O)N1N=C(c2ccncc2)OC1c1ccc(Cl)c(Cl)c1` (stereo not shown) [Sample ID 123669] as the compound, how does the “% Inhibition” value (M. avium (ATCC 25291); Bactec, Tables 10-12) read?
Its value is 65%.

What about the MIC (M. avium (ATCC 25291); Bactec, Tables 10-12) of the same compound?
The MIC was > 12.5 µg/mL.

For `CC(/C=N/NC(=O)c1ccncc1)=C\c1ccccc1` [Sample ID 103062], which MIC [1, 4] is on record?
The MIC was 0.2 µg/mL (≈ 0.754 µM).

What about the EC90 [2] of the same compound?
Its EC90 is 0.03 µg/mL (≈ 0.113 µM).

And the EC99 [2]?
Its EC99 is 0.15 µg/mL.

For `CC(=O)N1N=C(c2ccncc2)OC1c1ccccc1[N+](=O)[O-]` (stereo not shown) [Sample ID 123667], which “% Inhibition” value [1, 9] is on record?
The value was 38%.

And the MIC [1, 10]?
The MIC was > 12.5 µg/mL.
